Assay results published in patent US11352371B2, “Thienopyrimidine derivatives as ACC inhibitors and uses thereof” (Gilead Sciences, Inc., priority 2019, dated 2022).

Columns and labels:
HepG2 cells = experiment: In vitro De Novo Lipogenesis (DNL) assay, 13C-acetate incorporation into palmitic acid; assay type: cell-based; details: Homo sapiens, 1 hour preincubation, 24 hours with 10 mM 13C-labeled acetate
Protocol: De Novo Lipogenesis (DNL) was measured in vitro in HepG2 cells by quantifying the incorporation of ^13C-labeled acetate into palmitic acid.
HepG2 cells were plated in growth medium (DMEM (Corning cat #15-018-CM) supplemented with 10% FBS (HyClone cat #SH30071-03), and 1× penicillin, streptomycin, glutamine (Corning cat #30-009-CI)) at 10,000 cells/well in a 384-well cell culture-treated plate (Greiner cat #781091). The cells were then incubated overnight at 37° C., 5% CO2. The next day, the cells were washed twice with sterile DPBS (Corning cat #21-031-CM) and the culture medium was changed to fresh growth medium. The compounds of interest were dosed to cells, followed by a 1 hour incubation at 37° C., 5% CO2. ^13C-labeled acetate (Sigma-Aldrich cat #279315-1G) was added to the culture medium at a concentration of 10 mM and the cells were incubated for 24 hours at 37° C., 5% CO2.
In order to analyze the lipid content of the HepG2 cells, the culture medium was removed and the cells were lysed by adding 30 μL of 0.1 M NaOH. After 5 minutes of incubation at room temperature, 15 μL of cell lysate was transferred to a 384-well deep-well plate (Sigma-Aldrich cat #BR701355-48EA) containing 15 μL of 7.3% KOH in ethanol and mixed. This plate was sealed and incubated at 70° C. for 4 hours to hydrolyze the lipids to free fatty acids. 100 μL of acetonitrile was then added and the plate was spun at 3,700 g for 20 minutes to separate the organic and aqueous phases. 50 μL from the top (organic) phase was transferred to a new 384-well plate (NUNC cat #264573) and the samples were analyzed by mass spectrometry using a RapidFire coupled to a QTOF mass spectrometer. The sum of the area under curve (AUC) for palmitate containing 3 to 7 ^13C was normalized with the AUC of oleate and plotted against compound concentration to determine the potency of ACC inhibitors. […]

[1] = Rat liver/plasma ratio determination; assay type: in vivo, male Sprague-Dawley (SD) rats; details: male SD rats, single oral dose 5 mg/kg or 10 mg/kg; for L/P Ratio (2 h): liver to plasma concentration 2 hours after dosing; for L/P Ratio (24 h): liver to plasma concentration 24 hours after dosing
Protocol: Liver to plasma (L/P) ratios of certain example compounds were determined in male Sprague-Dawley (SD) rats 2 hours and 24 hours after their administration.
The in vivo phases of the rat L/P ratio determinations for example compounds were conducted at Covance Laboratories (Madison, Wis.) or Charles River Laboratories (Worcester, Wash.). Animals were housed and handled in accordance with the Guide for the Care and Use of Laboratory Animals, Institute of Laboratory Animal Resources. The protocols were reviewed and approved by Institutional Animal Care and Use Committees (IACUC). Male Sprague-Dawley (SD) rats weighing approximately 300 g were fasted overnight prior to dosing and up to 4 hours after dosing. Each example compound was dosed at a single dose at 5 mg/kg or 10 mg/kg orally by gavage to male SD rats (n=3 rats/group). The aqueous formulation contained ethyl alcohol and polyethylene glycol 300. Approximately 100 μL plasma and 0.5 g liver samples were collected from each animal either 2 hours or 24 hours after dosing. The liver samples were homogenized by hard tissue homogenizer probes (Omni International, Kennesaw, Ga.) with 4× extraction buffer. For LC-MS/MS analysis, plasma and liver samples were prepared through protein precipitation extraction and analyzed on a Scitex API 5500 or 6500 LC-MS/MS instrument (Applied Biosystems, Foster City, Calif.). Analyte was eluted on a 1.7 μm 50×2.1 mm Acquity UPLC BEH C18 column (Waters, Milford, Mass.) using mobile phase containing 0.1% formic acid and a linear gradient from 55% to 95% acetonitrile at a flow rate of 800 μL/min. A liver/plasma ratio for each compound was calculated using the liver and plasma concentrations at the corresponding time point (2 hours or 24 hours). Noncompartmental pharmacokinetic parameters were calculated using Phoenix 32 (Pharsight Corporation, Mountain View, Calif.).
To assess the liver loading potential of the compounds, rat liver/plasma ratios (Rat L/P Ratio) values were determined for example compounds and are listed below in Table 1 for 2 hour and 24 hour timepoints (Rat L/P Ratio (2h/24h)).

| EC50 (HepG2 cells) [nM] | L/P Ratio (2 h) [1] | L/P Ratio (24 h) [1] | SMILES |
| --- | --- | --- | --- |
| 4.5 | 442 | 1106 | Cc1c(-c2ncco2)sc2c1c(=O)n(C(C)(C)C(=O)NS(=O)(=O)C1(C)CC1)c(=O)n2C[C@H](O[C@@H]1C[C@H]2CC[C@@H](C1)O2)c1cc(F)ccc1OC(F)F [Example 6, 2-(1-((R)-2-(((1R,3s,5S)-8-oxabicyclo[3.2.1]octan-3-yl)oxy)-2-(2-(difluoromethoxy)-5-fluorophenyl)ethyl)-5-methyl-6-(oxazol-2-yl)-2,4-dioxo-1,4-dihydrothieno[2,3-d]pyrimidin-3(2H)-yl)-2-methyl-N-((1-methylcyclopropyl)sulfonyl)propanamide] |
| 0.3 | 2515 | 2914 | COc1ccc(F)cc1[C@H](Cn1c(=O)n(C(C)(C)C(=O)NS(=O)(=O)C2(C)CC2)c(=O)c2c(C)c(-n3nccn3)sc21)O[C@@H]1C[C@H]2CC[C@@H](C1)O2 [Example 20, 2-(1-((R)-2-(((1R,3s,5S)-8-oxabicyclo[3.2.1]octan-3-yl)oxy)-2-(5-fluoro-2-methoxyphenyl)ethyl)-5-methyl-2,4-dioxo-6-(2H-1,2,3-triazol-2-yl)-1,4-dihydrothieno[2,3-d]pyrimidin-3(2H)-yl)-2-methyl-N-((1-methylcyclopropyl)sulfonyl)propanamide] |
| 1.7 | 145 | 136 | COc1ccccc1[C@H](Cn1c(=O)n(C2(C(=O)NS(=O)(=O)C3(C)CC3)CC2)c(=O)c2c(C)c(-c3ncco3)sc21)O[C@@H]1C[C@H]2CC[C@@H](C1)O2 [Example 12, 1-(1-((R)-2-(((1R,3s,5S)-8-oxabicyclo[3.2.1]octan-3-yl)oxy)-2-(2-methoxyphenyl)ethyl)-5-methyl-6-(oxazol-2-yl)-2,4-dioxo-1,4-dihydrothieno[2,3-d]pyrimidin-3(2H)-yl)-N-((1-methylcyclopropyl)sulfonyl)cyclopropane-1-carboxamide] |
